# Data: US20250034168A1, “NITROGEN-CONTAINING HETEROCYCLIC DERIVATIVE PARP INHIBITOR AND USE THEREOF” (XIZANG HAISCO PHARMACEUTICAL CO., LTD., priority 2021, published 2025)
# Key:
# PARP-1 enzyme = PARP-1 enzyme (Homo sapiens (Human), UniProt P09874); test: PARP-1 enzyme activity test; assay type: biochemical
# Protocol: PARP-1 chemical […] detection kit was purchased from BPS Bioscience. The histone solution in the kit was diluted 5× with 1×PBS, and 25 μL of the diluted histone solution was added to a microwell plate and incubated overnight at 4° C. After the incubation, the plate was washed three times with PBST (0.05% Tween-20). 100 μL of the blocking solution was added to the microwell plate and incubated at 25° C. for 90 minutes. After the incubation, the plate was washed three times with PBST. 2.5 μL of compounds at different concentrations diluted in test buffer and 12.5 μL of substrate mixed solution (1.25 μL 10×PARP test buffer; 1.25 μL 10×PARP test mixed solution; 2.5 μL Activated DNA, 7.5 μL double-distilled water) were added to the microwell plate. The PARP-1 enzyme was diluted to 2 ng/μL, 10 μL of the diluent was added to the microwell plate, and the reaction system was incubated at 25° C. for 60 minutes.
# After the incubation, the plate was washed three times with PBST. Streptavidin-HRP was diluted 50× with a blocking solution, and 25 μL of the diluent was added to the microwell plate and incubated at 25° C. for 30 minutes. After the incubation, the plate was washed three times with PBST. ELISA ECL substrate A and substrate B were mixed at a ratio of 1:1 (v/v), 50 μL of the mixture was added to the microwell plate, and the chemiluminescence value was read.
# The inhibition rate was calculated according to formula 1, where RLUsample was the readout of the compound well, RLUmax was the readout of the solvent control well, and RLUmin was the readout of the control well without the PARP-1 enzyme. Curve fitting was performed by four parameters (log(inhibitor) vs. response—Variable slope) using GraphPad Prism software, and the IC50 value was calculated.
# MDA-MB-436 cells = test: MDA-MB-436 cell activity test; assay type: cell-based; conditions: Homo sapiens; for IC50: MDA-MB-436, 168 h, 7 days incubation, CellTiter-Glo; for inhibition at 10 µM: MDA-MB-436 cells, read-out: Max inh. % 10 μM
# Protocol: Breast tumor cells MDA-MB-436 were purchased from ATCC, the culture medium was Leibovitz's L-15+10% FBS, and the cells were cultured in a CO2-free incubator at 37° C. On day 1, the cells in the exponential growth phase were collected, and the cell suspension was adjusted to 4000 cells/135 μL with the culture medium. 135 μL of the cell suspension was added to each well of a 96-well cell culture plate and incubated overnight. On day 2, compounds at different concentrations were added, and the plate was placed in the incubator and incubated for 7 days. After the incubation was completed, according to operation instructions for a CellTiter-Glo kit (Promega, G7573), 75 μL of CTG solution, which was already pre-melted and equilibrated to room temperature, was added to each well, and the mixture was uniformly mixed for 2 min using a microplate shaker. The plate was placed at room temperature for 10 min, and then […] were measured using an Envision2104 plate reader (PerkinElmer). The inhibition rate was calculated using formula (1), where RLUcompound was the readout of the drug treated group, RLUcontrol was the average value of the vehicle control group, and RLUblank was the average value of the cell-free well. The IC50 value was calculated using GraphPad Prism software.
# Chain of PARP-1 enzyme (P09874 whole entry): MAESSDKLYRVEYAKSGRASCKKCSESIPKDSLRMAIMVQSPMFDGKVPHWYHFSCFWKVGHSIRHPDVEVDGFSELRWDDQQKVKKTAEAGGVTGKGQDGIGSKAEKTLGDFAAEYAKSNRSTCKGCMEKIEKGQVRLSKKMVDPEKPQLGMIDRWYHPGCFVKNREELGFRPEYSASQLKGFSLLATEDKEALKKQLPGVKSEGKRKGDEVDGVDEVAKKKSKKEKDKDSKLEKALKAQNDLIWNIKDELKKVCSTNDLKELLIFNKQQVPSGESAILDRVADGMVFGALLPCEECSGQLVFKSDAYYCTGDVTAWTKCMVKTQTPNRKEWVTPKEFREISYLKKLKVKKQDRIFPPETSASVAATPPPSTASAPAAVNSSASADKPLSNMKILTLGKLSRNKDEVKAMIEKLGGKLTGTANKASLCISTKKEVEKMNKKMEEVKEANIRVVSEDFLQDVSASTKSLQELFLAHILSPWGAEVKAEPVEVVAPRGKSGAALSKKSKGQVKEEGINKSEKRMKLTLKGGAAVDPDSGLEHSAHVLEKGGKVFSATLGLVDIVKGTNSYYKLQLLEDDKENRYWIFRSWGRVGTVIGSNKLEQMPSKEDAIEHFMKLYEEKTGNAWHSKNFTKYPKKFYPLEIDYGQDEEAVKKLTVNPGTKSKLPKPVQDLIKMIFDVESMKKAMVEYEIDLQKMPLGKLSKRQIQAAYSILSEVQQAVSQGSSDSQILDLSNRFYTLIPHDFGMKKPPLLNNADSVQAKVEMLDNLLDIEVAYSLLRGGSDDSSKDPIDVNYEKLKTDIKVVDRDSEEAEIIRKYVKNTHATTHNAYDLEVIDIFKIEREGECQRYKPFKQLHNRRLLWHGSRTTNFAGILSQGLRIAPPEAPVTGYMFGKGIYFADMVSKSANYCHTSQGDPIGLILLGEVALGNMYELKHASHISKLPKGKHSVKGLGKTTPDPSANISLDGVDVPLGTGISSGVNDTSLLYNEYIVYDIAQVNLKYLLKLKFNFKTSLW
SMILES,IC50 (PARP-1 enzyme) [nM],IC50 (MDA-MB-436 cells) [nM],inhibition at 10 µM (MDA-MB-436 cells) [%]
"CCc1cc2ncc(CN3C4CCC3CN(c3ccc(C(=O)NC)nc3)C4)cc2[nH]c1=O [Compound 3, 5-(8-((7-ethyl-6-oxo-5,6-dihydro-1,5-naphthyridin-3-yl)methyl)-3,8-diazabicyclo[3.2.1]octan-3-yl)-N-methylpicolinamide]",1.6,,
"CCc1cc2ncc(CN3CC=C(c4ccc(C(=O)Nc5cnn(C)c5)nc4)CC3)cc2[nH]c1=O [Compound 20, 1′-((7-ethyl-6-oxo-5,6-dihydro-1,5-naphthyridin-3-yl)methyl)-N-(1-methyl-1H-pyrazol-4-yl)-1′,2′,3′,6′-tetrahydro-[3,4′-bipyridine]-6-carboxamide]",0.26,0.7,91.8
"CCc1cc2ncc(CN3CC=C(c4ccc(NC(=O)C5CC5)nc4)CC3)cc2[nH]c1=O [Compound 22, N-(1′-((7-ethyl-6-oxo-5,6-dihydro-1,5-naphthyridin-3-yl)methyl)-1′,2′,3′,6′-tetrahydro-[3,4′-bipyridin]-6-yl)cyclopropanecarboxamide]",0.31,2.2,89.1
"CCc1cc2ncc(CN3CC=C(c4ccc(C(=O)NC5CC5)nc4)CC3)cc2[nH]c1=O [Compound 25, N-cyclopropyl-1′-((7-ethyl-6-oxo-5,6-dihydro-1,5-naphthyridin-3-yl)methyl)-1′,2′,3′,6′-tetrahydro-[3,4′-bipyridine]-6-carboxamide]",0.36,,
"CCc1cc2ncc(CN3CC=C(c4ccc(C(=O)N[C@@H]5C[C@@H]5F)nc4)CC3)cc2[nH]c1=O [Compound 26, 1′-((7-ethyl-6-oxo-5,6-dihydro-1,5-naphthyridin-3-yl)methyl)-N-((1R,2S)-2-fluorocyclopropyl)-1′,2′,3′,6′-tetrahydro-[3,4′-bipyridine]-6-carboxamide]",0.41,1,90.9
"CCc1cc2ncc(CN3CC=C(c4cn5cc(C)nc5cn4)CC3)cc2[nH]c1=O [Compound 27, 3-ethyl-7-((4-(2-methylimidazo[1,2-a]pyrazin-6-yl)-3,6-dihydropyridin-1(2H)-yl)methyl)-1,5-naphthyridin-2(1H)-one]",0.41,,
"CCc1cc2ncc(CN3CC=C(c4ccc(NC(=O)c5cnn(C)c5)nc4)CC3)cc2[nH]c1=O [Compound 30, N-(1′-((7-ethyl-6-oxo-5,6-dihydro-1,5-naphthyridin-3-yl)methyl)-1′,2′,3′,6′-tetrahydro-[3,4′-bipyridin]-6-yl)-1-methyl-1H-pyrazole-4-carboxamide]",0.26,0.7,91.8
"CCc1cc2ncc(C=C3CCN(c4ccc(C(=O)Nc5cnn(C)c5)nc4)CC3)cc2[nH]c1=O [Compound 32, 5-(4-((7-ethyl-6-oxo-5,6-dihydro-1,5-naphthyridin-3-yl)methylene)piperidin-1-yl)-N-(1-methyl-1H-pyrazol-4-yl)picolinamide]",0.19,13.8,99.1
"CCc1cc2ncc(CN3CC=C(c4cn5cc(C(F)(F)F)nc5cn4)CC3)cc2[nH]c1=O [Compound 33, 3-ethyl-7-((4-(2-(trifluoromethyl)imidazo[1,2-a]pyrazin-6-yl)-3,6-dihydropyridin-1(2H)-yl)methyl)-1,5-naphthyridin-2(1H)-one]",0.71,1.9,77.6

# Now from value to compound, other results behind:
IC50 (PARP-1 enzyme) [nM],SMILES,IC50 (MDA-MB-436 cells) [nM],inhibition at 10 µM (MDA-MB-436 cells) [%]
0.8,"CCc1cc2ncc(CN3CC4CN(c5ccc(C(=O)NC)nc5)CC4C3)cc2[nH]c1=O (stereo not drawn) [Compound 1, 5-(5-((7-ethyl-6-oxo-5,6-dihydro-1,5-naphthyridin-3-yl)methyl)hexahydropyrrolo [3,4-c]pyrrol-2(1H)-yl)-N-methylpicolinamide]",,
0.51,"CCc1cc2ncc(CN3CC(Nc4ccc(C(=O)NC)nc4)C3)cc2[nH]c1=O [Compound 6, 5-((1-((7-ethyl-6-oxo-5,6-dihydro-1,5-naphthyridin-3-yl)methyl)azetidin-3-yl)amino)-N-methylpicolinamide]",,
0.78,"CCc1cc2ncc(CN3CC4(C3)CN(c3ccc(C(=O)NC)nc3)C4)cc2[nH]c1=O [Compound 8, 5-(6-((7-ethyl-6-oxo-5,6-dihydro-1,5-naphthyridin-3-yl)methyl)-2,6-diazaspiro[3.3]heptan-2-yl)-N-methylpicolinamide]",,
0.36,"CCc1cc2ncc(CN3CC[C@@H](Nc4ccc(C(=O)NC)nc4)C3)cc2[nH]c1=O [Compound 19, (R)-5-((1-((7-ethyl-6-oxo-5,6-dihydro-1,5-naphthyridin-3-yl)methyl)pyrrolidin-3-yl)amino)-N-methylpicolinamide]",,
0.33,"CCc1cc2ncc(C=C3CCN(c4ccc(C(=O)NC)nc4)CC3)cc2[nH]c1=O [Compound 28, 5-(4-((7-ethyl-6-oxo-5,6-dihydro-1,5-naphthyridin-3-yl)methylene)piperidin-1-yl)-N-methylpicolinamide]",,
0.95,"CCc1cc2ncc(CC3CCN(c4ccc(C(=O)NC)nc4)CC3)cc2[nH]c1=O [Compound 29, 5-(4-((7-ethyl-6-oxo-5,6-dihydro-1,5-naphthyridin-3-yl)methyl)piperidin-1-yl)-N-methylpicolinamide]",,
